pIC50: −log10 of the molar value. Like-named read-outs stand apart in the source and are kept apart here.
Tests used:
[1] = molecular target: T1, NMDA receptor (NR1 subunit and NR2B subunit) (Mus musculus, UniProt P35438+Q01097); experiment: Measurement of expression of NMDA receptor and Ca ion influx amount (glutamic acid/glycine-induced, HEK293 cell co-expressing NR1 and NR2B subunits, Fluo-3/AM); format: cell-based
T1 construct: expressed in transfected cells; host or cells: HEK293 cells, transient transfection with pcDNA3.1 plasmids
Protocol: Measurement of Expression of NMDA Receptor and Ca Ion Influx Amount
A complementary DNA (cDNA) of a mouse NMDA receptor subunit was transiently introduced into a HEK293 cell and, after 1 day from introduction, change in a glutamic acid/glycine-induced intracelluar Ca amount was measured using a Ca ion reactive fluorescent coloring matter.
The HEK293 cell was cultured, and passaged using a modified Dulbecco's Eagle medium (DMEM, low glucose).
The HEK293 cell (20,000/well) was seeded on a 96-well plate, a NR1 subunit and a NR2B subunit of the NMDA receptor incorporated into the pcDNA3.1 plasmid were transiently introduced into a cell, and the subunits were co-expressed. An introduction amount of a DNA was 0.025 μg in the case of the NR1 subunit, and 0.075 μg in the case of NR2B subunit per well. For the cell after introduction, cell death was inhibited using 50 μM of the NMDA receptor antagonist MK-801.
For adjusting a test compound and washing a cell, Krebs/Ringer/Hepes buffer (KRH, Ca: 5 mM) was used.
After 1 day from introduction, the NMDA receptor antagonist MK-801 was washed out using the KRH buffer, and a Ca ion indication fluorescent coloring matter Fluo-3/AM was made to be taken into the cell. Ca ion influx was induced with 20 μM glutamic acid/2 μM glycine. Change in a fluorescent amount due to Ca ion influx into the cell was measured at excitation of 480 nm using a fluorescent imaging system FDSS 3000.
From a measured value of the test compound, a Ca ion influx inhibition rate (%) was obtained by the following equation, and a dose at which influx is inhibited 50% (IC50) was calculated.
Ca ion influx inhibition rate(%)=100−[(fluorescent amount in the presence of test compound−background fluorescent amount)/(total fluorescent amount−background fluorescent)]×100

NR1/NR2B receptor = molecular target: T2, NR1/NR2B receptor (Rattus norvegicus, UniProt P35439+Q00960); experiment: Test of binding with NMDA receptor (NR1/NR2B receptor): competition with [3H]-Ifenprodil on rat cerebral cortex membrane specimen; settings: for IC50: [3H]-Ifenprodil 5 nM, GBR-12909 3 μM, rat cerebral cortex membranes, ice temperature 120 minutes, read-out: NR2B (IC50 μM); for pIC50: same binding test, read-out: IC50 (binding with NR1/NR2B receptor)
T2 construct: from tissue; host or cells: rat cerebral cortex membranes (male Slc: Wistar rat)
Protocol: Test of Binding with NMDR Receptor (NR1/NR2B Receptor)
Using Ifenprodil which is an antagonist specific for a NR1/NR2B subtype receptor as a ligand, an experiment of competition between a receptor and a test compound was performed.
Using a male Slc: Wistar rat as an animal, a brain was isolated after decapitation, and a cerebral cortex was fractionated. The cerebral cortex was homogenized with a 20-fold amount of an ice-cooled 50 mM Tris/HCl buffer (pH 7.4), and the homogenate was centrifuged at 4° C. and 27,500×g for 10 minutes. The resulting precipitate was suspended in the same buffer, and this was again centrifuged. This operation was repeated for three times, the resulting precipitate was suspended in a buffer, and this was stored at −80° C. Immediately before an experiment, the frozen suspension was thawed at room temperature, this was centrifuged at 4° C. and 27,500×g for 10 minutes, and the resulting precipitate was suspended in a buffer. Further, the suspension was diluted 10-fold with a buffer, and this was used as a membrane specimen in an experiment. In a binding experiment, to 470 μl of the membrane specimen were added […] of each of test compounds having different concentrations, 10 μl of a labeled ligand [^3H]-Ifenprodil and 10 μl GBR-12909, followed by incubation at an ice temperature for 120 minutes. A concentration of [^3H]-Ifenprodil of the labeled ligand was finally 5 nM, and a concentration of GBR-12909 was finally 3 μM. For measuring a total binding amount, DMSO as a solvent was used and, for measuring a non-specific binding amount, 100 μM Ifenprodil was used. GBR-12909 was added in order to block binding of [^3H]-Ifenprodil to non-polyamine-sensitive site. After incubation, a bound formand a free foramwere separated using Whatman GF/C filter (manufactured by Whatman), and the filter was washed with 2.5 ml ice-cooled buffer four times. The filter was immersed in liquid scintillation (Cryasol I, manufactured by Nacalai tesque), and radioactivity (dpm) was measured with a liquid scintillation counter. From a measured value, a binding inhibition rate (%) was obtained by the following equation, and a dose at which binding is inhibited 50% (IC50) was calculated. A formula of GBR-12909 (vanoxerine) is shown below.
Binding inhibition rate(%)=100−[(binding amount in the presence of test compound−non-specific binding amount)/(total binding amount−non-specific binding amount)]×100

[2] = Ca ion influx induced with 20 μM glutamic acid/2 μM glycine, HEK293 cell with mouse NR1/NR2B, read-out: Ca2+ IC50
[3] = same Ca ion influx test, read-out: IC50 (Ca ion influx inhibition)

T2 sequence (Q00960 27-1482, other chains not shown): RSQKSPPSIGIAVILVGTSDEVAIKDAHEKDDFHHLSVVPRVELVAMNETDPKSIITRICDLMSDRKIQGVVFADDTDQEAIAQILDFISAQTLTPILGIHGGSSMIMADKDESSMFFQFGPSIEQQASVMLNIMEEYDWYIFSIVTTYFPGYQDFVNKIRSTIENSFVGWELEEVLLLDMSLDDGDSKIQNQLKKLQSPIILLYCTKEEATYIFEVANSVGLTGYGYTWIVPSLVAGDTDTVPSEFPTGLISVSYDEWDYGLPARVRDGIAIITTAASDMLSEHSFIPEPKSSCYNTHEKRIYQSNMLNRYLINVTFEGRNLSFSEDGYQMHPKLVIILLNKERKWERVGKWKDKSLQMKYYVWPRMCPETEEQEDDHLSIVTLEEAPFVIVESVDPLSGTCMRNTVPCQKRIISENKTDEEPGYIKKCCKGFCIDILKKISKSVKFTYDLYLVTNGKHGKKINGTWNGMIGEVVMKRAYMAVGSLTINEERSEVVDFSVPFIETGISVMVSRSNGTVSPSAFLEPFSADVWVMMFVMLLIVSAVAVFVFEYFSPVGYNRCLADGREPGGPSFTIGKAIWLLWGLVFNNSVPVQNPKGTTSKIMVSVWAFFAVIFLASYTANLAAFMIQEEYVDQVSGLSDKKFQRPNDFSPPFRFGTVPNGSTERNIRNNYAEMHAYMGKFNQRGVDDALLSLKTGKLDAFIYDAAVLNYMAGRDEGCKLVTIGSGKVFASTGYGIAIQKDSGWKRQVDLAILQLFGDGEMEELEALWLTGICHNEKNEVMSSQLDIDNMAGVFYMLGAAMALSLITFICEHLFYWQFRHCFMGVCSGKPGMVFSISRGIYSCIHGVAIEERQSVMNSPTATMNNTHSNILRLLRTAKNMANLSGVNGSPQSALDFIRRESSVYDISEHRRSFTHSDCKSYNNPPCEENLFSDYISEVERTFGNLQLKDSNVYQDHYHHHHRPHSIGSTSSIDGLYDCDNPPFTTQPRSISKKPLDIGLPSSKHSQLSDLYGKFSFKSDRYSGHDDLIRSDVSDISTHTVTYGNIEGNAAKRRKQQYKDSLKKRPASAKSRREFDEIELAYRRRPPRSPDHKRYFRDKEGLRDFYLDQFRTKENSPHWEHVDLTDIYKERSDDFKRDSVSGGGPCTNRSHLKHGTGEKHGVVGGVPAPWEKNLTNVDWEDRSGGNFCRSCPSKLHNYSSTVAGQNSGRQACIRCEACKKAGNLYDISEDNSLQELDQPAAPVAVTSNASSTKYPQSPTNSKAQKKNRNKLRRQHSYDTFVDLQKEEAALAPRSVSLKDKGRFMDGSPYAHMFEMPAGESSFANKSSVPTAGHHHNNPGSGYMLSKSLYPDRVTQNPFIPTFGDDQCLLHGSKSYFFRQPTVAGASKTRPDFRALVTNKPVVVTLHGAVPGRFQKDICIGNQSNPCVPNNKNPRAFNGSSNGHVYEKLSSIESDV
T1 sequence (Q01097 27-1482, other chains not shown): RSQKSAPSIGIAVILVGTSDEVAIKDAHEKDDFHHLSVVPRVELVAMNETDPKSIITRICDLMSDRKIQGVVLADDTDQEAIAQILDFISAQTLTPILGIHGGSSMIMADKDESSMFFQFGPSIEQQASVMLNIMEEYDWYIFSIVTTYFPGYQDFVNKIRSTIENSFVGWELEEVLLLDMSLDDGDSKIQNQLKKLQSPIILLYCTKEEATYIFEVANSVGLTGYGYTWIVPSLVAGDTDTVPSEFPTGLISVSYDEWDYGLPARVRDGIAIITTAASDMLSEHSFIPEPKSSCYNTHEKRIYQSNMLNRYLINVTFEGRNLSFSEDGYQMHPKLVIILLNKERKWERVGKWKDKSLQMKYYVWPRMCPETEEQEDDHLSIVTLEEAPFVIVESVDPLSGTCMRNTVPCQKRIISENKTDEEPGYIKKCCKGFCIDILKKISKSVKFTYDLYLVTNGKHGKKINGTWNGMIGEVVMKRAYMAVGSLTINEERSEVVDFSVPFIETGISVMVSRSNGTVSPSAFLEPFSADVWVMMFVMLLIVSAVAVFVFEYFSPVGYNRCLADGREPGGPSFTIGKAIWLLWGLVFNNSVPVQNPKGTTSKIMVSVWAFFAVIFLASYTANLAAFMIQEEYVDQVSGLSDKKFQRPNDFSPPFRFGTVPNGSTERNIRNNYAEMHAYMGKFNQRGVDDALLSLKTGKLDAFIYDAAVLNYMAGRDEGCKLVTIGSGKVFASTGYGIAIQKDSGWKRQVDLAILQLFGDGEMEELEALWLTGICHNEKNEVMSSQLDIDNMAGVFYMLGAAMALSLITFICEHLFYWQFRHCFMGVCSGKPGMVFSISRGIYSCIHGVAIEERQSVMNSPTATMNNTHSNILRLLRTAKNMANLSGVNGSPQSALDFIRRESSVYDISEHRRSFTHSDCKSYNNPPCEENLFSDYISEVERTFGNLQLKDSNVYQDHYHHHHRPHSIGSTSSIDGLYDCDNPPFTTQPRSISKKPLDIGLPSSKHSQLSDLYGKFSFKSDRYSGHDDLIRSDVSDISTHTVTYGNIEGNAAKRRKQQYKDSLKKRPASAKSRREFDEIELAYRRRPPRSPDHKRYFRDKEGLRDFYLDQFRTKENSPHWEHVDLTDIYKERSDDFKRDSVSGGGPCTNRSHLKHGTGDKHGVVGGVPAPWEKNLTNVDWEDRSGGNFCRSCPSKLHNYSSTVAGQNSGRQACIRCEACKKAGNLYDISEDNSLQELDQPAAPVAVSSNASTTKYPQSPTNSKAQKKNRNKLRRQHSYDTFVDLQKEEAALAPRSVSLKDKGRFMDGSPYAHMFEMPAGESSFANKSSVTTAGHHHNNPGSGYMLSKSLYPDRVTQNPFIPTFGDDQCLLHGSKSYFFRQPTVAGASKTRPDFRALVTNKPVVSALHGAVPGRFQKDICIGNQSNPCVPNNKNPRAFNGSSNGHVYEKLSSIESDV

Row | SMILES | melting point | pIC50 [1, 2] | IC50 (NR1/NR2B receptor) | pIC50 [1, 3] | pIC50 (NR1/NR2B receptor)
1 | O=C(NCC1CCN(c2ccc(C(F)(F)F)cc2)CC1)c1ccc(=O)[nH]c1 [Compound I-3] | 283 to 284 °C (dec.) |  |  |  | 
2 | O=C(NC1CCN(c2ccc(Cl)cc2)CC1)c1ccc(=O)[nH]c1 [Compound I-4] | 274 to 275 °C (dec.) |  |  |  | 
3 | O=C(NCCC1CCN(c2ccc(C(F)(F)F)cn2)CC1)c1ccc(=O)[nH]c1 [Compound I-6] | 232 to 234 °C | 7.41 |  |  | 
4 | O=C(CC1(O)CCN(c2ccc(C(F)(F)F)cn2)CC1)Nc1ccc2[nH]c(=O)oc2c1 [Compound I-61] | 218 to 219 °C | 7.43 |  |  | 
5 | O=C(CC1CCN(c2ccc(C(F)(F)F)cn2)CC1)Nc1ccc2[nH]c(=O)oc2c1 [Compound I-62] | 229 to 230 °C | 7.04 |  |  | 
6 | O=C(CC1=CCN(c2ccc(C(F)(F)F)cn2)CC1)Nc1ccc2[nH]c(=O)oc2c1 [Compound I-63] | 236 to 237 °C | 7.10 |  |  | 
7 | O=C(CC1(O)CCN(c2ccc(C(F)(F)F)cc2)CC1)Nc1ccc2c(c1)CCC(=O)N2 [Compound I-64] | 222 to 223 °C |  |  |  | 
8 | O=C(CC1(O)CCN(c2ccc(C(F)(F)F)cc2)CC1)Nc1ccc2c(c1)CC(=O)N2 [Compound I-65] | 260 to 261 °C |  |  |  | 
9 | O=C(NCCC1(O)CCN(c2ccc(C(F)(F)F)cn2)CC1)c1cn[nH]c1 [Compound I-67] | 199 to 200 °C |  |  |  | 
10 | O=C(Nc1ccc2[nH]c(=O)sc2c1)C(=O)N1CCN(c2ccc(Cl)cc2)CC1 [Compound I-90] |  |  | 0.026 µM | ≥ 7.00 | 
11 | O=C(Nc1ccc2[nH]c(=O)oc2c1)C(=O)N1CCN(c2ccc(C(F)(F)F)c(F)c2)CC1 [Compound I-98] |  |  | 0.015 µM | ≥ 7.00 | 
12 | O=C(Nc1ccc2[nH]c(=O)oc2c1)C(=O)N1CCN(c2ccc(F)c(F)c2)CC1 [Compound I-99] |  |  |  | ≥ 7.00 | ≥ 7.00
13 | O=C(Nc1ccc2[nH]c(=O)oc2c1)C(=O)N1CCCN(c2ccc(Cl)cc2)CC1 [Compound I-100] |  | 8.00 | 0.074 µM |  | 
14 | O=C(Nc1cnc2[nH]c(=O)[nH]c2c1)C(=O)N1CCN(c2ccc(C(F)(F)F)cc2)CC1 [Compound I-101] |  | 9.00 | 0.011 µM |  | 
15 | O=C(Nc1ccc2[nH]c(=O)oc2c1)C(=O)N1CCN(c2ccc(C(F)(F)F)cn2)CC1 [Compound I-103] |  |  | 0.018 µM | ≥ 7.00 | 
16 | O=C(Nc1ccc2[nH]c(=O)oc2c1)C(=O)N1CCN(c2ccc(Cl)c(Cl)c2)CC1 [Compound I-104] |  | 9.00 | 0.016 µM |  | 
17 | O=C(Nc1cnc2[nH]c(=O)oc2c1)C(=O)N1CCN(c2ccc(Cl)c(Cl)c2)CC1 [Compound I-105] |  | 8.00 | 0.045 µM |  | 
18 | O=C(Nc1cnc2[nH]c(=O)oc2c1)C(=O)N1CCN(c2ccc(C(F)(F)F)c(F)c2)CC1 [Compound I-107] |  |  |  | ≥ 7.00 | ≥ 7.00
19 | O=C(Nc1ccc2[nH]c(=O)oc2c1)C(=O)N1CCN(c2ccc(Cl)c(F)c2)CC1 [Compound I-109] |  | 9.00 | 0.012 µM |  | 
20 | O=C(Nc1cnc2[nH]c(=O)oc2c1)C(=O)N1CCN(c2ccc(Cl)c(F)c2)CC1 [Compound I-113] |  | 7.47 | 0.034 µM |  | 

The remaining lines, values ahead:

Row | melting point | pIC50 [1, 2] | IC50 (NR1/NR2B receptor) | pIC50 [1, 3] | pIC50 (NR1/NR2B receptor) | SMILES
21 |  |  |  | ≥ 7.00 | ≥ 7.00 | O=C(Nc1ccc2[nH]c(=O)oc2c1)C(=O)N1CCCN(c2ccc(C(F)(F)F)c(F)c2)CC1 [Compound I-114]
22 |  | 7.31 | 0.049 µM |  |  | O=C(CC1(O)CCN(c2ccc(C(F)(F)F)c(F)c2)CC1)Nc1ccc2[nH]c(=O)oc2c1 [Compound I-116]
23 |  | 8.40 | 0.044 µM |  |  | O=C(Nc1ccc2[nH]c(=O)oc2c1)C(=O)N1CCCN(c2ccc(Cl)c(F)c2)CC1 [Compound I-154]
24 |  |  | 0.059 µM | ≥ 7.00 |  | C[C@@H]1CN(C(=O)C(=O)Nc2ccc3[nH]c(=O)oc3c2)CCN1c1ccc(Cl)cc1 [Compound I-177]
25 |  |  | 0.029 µM | ≥ 7.00 |  | C[C@@H]1CN(c2ccc(Cl)cc2)CCN1C(=O)C(=O)Nc1ccc2[nH]c(=O)oc2c1 [Compound I-178]
26 |  | 7.89 | 0.062 µM |  |  | O=C(C=C1CCN(c2ccc(C(F)(F)F)c(F)c2)CC1)Nc1ccc2[nH]c(=O)oc2c1 [Compound I-180]
27 |  | 7.96 | 0.041 µM |  |  | O=C(C=C1CCN(c2ccc(Cl)c(Cl)c2)CC1)Nc1ccc2[nH]c(=O)oc2c1 [Compound I-184]
28 |  | 7.85 | 0.054 µM |  |  | O=C(CC1(O)CCN(c2ccc(Cl)c(Cl)c2)CC1)Nc1ccc2[nH]c(=O)oc2c1 [Compound I-187]
29 |  | 7.82 | 0.023 µM |  |  | O=C(NCCC1CCN(c2ccc(Cl)c(Cl)c2)CC1)c1ccc(=O)[nH]c1 [Compound I-196]
30 | 264 to 266 °C (dec.) |  |  |  |  | CC(=O)c1ccc(N2CCN(C(=O)C(=O)Nc3ccc4[nH]c(=O)oc4c3)CC2)cc1 [Compound I-203]
31 |  |  |  | ≥ 7.00 | ≥ 7.00 | C[C@@H]1CN(C(=O)C(=O)Nc2ccc3[nH]c(=O)oc3c2)CCN1c1ccc(Cl)c(F)c1 [Compound I-207]
32 |  |  |  | ≥ 7.00 | ≥ 7.00 | O=C(Nc1ccc2[nH]c(=O)oc2c1)C(=O)N1CCN(c2ccc(OC(F)(F)F)cc2)CC1 [Compound I-211]
33 |  |  |  | ≥ 7.00 | ≥ 7.00 | C[C@@H]1CN(c2ccc(F)c(Cl)c2)CCN1C(=O)C(=O)Nc1ccc2[nH]c(=O)oc2c1 [Compound I-221]
34 |  |  |  | ≥ 7.00 | ≥ 7.00 | O=C(C=C1CCN(c2ccc(OC(F)(F)F)cc2)CC1)Nc1ccc2[nH]c(=O)oc2c1 [Compound I-225]
35 |  |  |  | ≥ 7.00 | ≥ 7.00 | C[C@@H]1CN(c2ccc(C(F)(F)F)cn2)CCN1C(=O)C(=O)Nc1ccc2[nH]c(=O)oc2c1 [Compound I-227]
36 |  |  |  | ≥ 7.00 | ≥ 7.00 | C[C@@H]1CN(C(=O)C(=O)Nc2ccc3[nH]c(=O)oc3c2)CCN1c1ccc(Cl)cn1 [Compound I-228]
37 |  |  |  | ≥ 7.00 | ≥ 7.00 | O=C(NCCC1CCN(c2ccc(OC(F)(F)F)cc2)CC1)c1ccc(=O)[nH]c1 [Compound I-230]
38 |  |  |  | ≥ 7.00 | ≥ 7.00 | O=C(Nc1ccc2[nH]c(=O)oc2c1)C(=O)N1CCN(c2ccc(OC(F)F)cc2)CC1 [Compound I-233]
39 |  |  |  | ≥ 7.00 | ≥ 7.00 | O=C(C=C1CCN(c2ccc(OC(F)F)cc2)CC1)Nc1ccc2[nH]c(=O)oc2c1 [Compound I-237]
40 |  |  |  | ≥ 7.00 | ≥ 7.00 | COc1ccc(N2CCC(=CC(=O)Nc3ccc4[nH]c(=O)oc4c3)CC2)cc1F [Compound I-238]
41 | 118 to 120 °C |  |  |  |  | COc1ccc(N2CCN(C(=O)C(=O)Nc3ccc4[nH]c(=O)oc4c3)C[C@H]2C)cc1Cl [Compound I-248]
42 | 201 to 203 °C |  |  |  |  | COc1cc(N2CCN(C(=O)C(=O)Nc3ccc4[nH]c(=O)oc4c3)CC2)ccc1Cl [Compound I-250]
43 | 122 to 124 °C |  |  |  |  | COc1cc(N2CCN(C(=O)C(=O)Nc3ccc4[nH]c(=O)oc4c3)C[C@H]2C)ccc1Cl [Compound I-251]
44 | 226 to 228 °C |  |  |  |  | CCOc1ccc(N2CCN(C(=O)C(=O)Nc3ccc4[nH]c(=O)oc4c3)CC2)cc1F [Compound I-253]

— patent publication US7935706B2, “Nitrogen-containing heterocycle derivatives substituted with cyclic group” (Shionogi & Co., Ltd., priority 2006, dated 2011)
